From ChEMBL document CHEMBL5029152, “Discovery of Highly Potent and Selective IRAK1 Degraders to Probe Scaffolding Functions of IRAK1 in ABC DLBCL” (J Med Chem, 2021) come the findings set out here.

A short description of assay [1]: Cytotoxicity against human HBL1 cells assessed as reduction in cell viability measured after 12 days by CellTiter-Glo assay. It is filed as functional. To be noted: time 12 day.
For assay [2], the target named is Interleukin-1 receptor-associated kinase 1 (Homo sapiens, UniProt P51617). In words: Inhibition of truncated human N-terminal GST-fusion tagged IRAK1 (194 to 712 residues) expressed in baculovirus expression system using FAM-labelled peptide as substrate preincubated for 10 mins followed by substrate addition and further incubated for 1 hr in presence of ATP at Km concentration by caliper mobility shift assay.
Chain of Interleukin-1 receptor-associated kinase 1 (P51617 whole entry, the tested form may be a part): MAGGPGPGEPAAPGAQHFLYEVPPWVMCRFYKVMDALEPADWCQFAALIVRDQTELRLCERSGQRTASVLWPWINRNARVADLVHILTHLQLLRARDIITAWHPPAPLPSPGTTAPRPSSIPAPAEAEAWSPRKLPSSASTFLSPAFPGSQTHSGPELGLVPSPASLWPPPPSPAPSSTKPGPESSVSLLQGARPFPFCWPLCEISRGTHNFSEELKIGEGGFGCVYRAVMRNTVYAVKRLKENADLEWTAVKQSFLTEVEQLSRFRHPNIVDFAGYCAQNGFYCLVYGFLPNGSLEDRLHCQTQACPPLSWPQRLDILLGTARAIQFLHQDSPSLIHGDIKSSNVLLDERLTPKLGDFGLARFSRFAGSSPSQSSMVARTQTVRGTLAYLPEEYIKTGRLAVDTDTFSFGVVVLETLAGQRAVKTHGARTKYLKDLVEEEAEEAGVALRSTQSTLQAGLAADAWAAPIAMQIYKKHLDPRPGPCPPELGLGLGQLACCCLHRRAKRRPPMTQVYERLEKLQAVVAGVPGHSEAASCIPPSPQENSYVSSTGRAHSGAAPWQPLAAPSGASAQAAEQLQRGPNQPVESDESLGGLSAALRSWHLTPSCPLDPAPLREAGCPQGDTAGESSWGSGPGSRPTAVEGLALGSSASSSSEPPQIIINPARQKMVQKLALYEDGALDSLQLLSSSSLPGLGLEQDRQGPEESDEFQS

The target of assay [3] is T1, Interleukin-1 receptor-associated kinase 4 (Homo sapiens, UniProt Q9NWZ3).
T1 sequence (Q9NWZ3 whole entry): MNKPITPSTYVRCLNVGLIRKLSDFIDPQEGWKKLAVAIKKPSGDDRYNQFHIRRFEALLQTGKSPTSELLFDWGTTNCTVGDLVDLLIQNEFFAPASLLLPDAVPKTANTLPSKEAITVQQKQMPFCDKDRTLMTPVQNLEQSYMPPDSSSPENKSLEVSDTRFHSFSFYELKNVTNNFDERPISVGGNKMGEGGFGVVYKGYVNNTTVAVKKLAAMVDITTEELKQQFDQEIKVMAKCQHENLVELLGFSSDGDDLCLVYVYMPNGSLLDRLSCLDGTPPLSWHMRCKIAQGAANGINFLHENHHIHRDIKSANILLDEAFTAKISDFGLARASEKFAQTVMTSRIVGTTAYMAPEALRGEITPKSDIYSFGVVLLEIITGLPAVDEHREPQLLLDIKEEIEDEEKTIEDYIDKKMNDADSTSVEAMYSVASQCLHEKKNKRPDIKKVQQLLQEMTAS
In words: Inhibition of full length human N-terminal GST-fusion tagged IRAK4 expressed in baculovirus expression system using FAM-labelled peptide as substrate preincubated for 10 mins followed by substrate addition and further incubated for 1 hr in presence of ATP at Km concentration by caliper mobility shift assay.

Assay [4] deals with von Hippel-Lindau disease tumor suppressor (Homo sapiens, UniProt P40337). Briefly: Displacement of 5-FAM-labelled DEALA-HypYIPMDDDFQLRSF peptide from VHL (unknown origin) by fluorescence polarization assay. (In general: In fluorescence polarisation assays a small probe gives low polarisation when free and higher when bound to something large.)
Chain of von Hippel-Lindau disease tumor suppressor (P40337 whole entry): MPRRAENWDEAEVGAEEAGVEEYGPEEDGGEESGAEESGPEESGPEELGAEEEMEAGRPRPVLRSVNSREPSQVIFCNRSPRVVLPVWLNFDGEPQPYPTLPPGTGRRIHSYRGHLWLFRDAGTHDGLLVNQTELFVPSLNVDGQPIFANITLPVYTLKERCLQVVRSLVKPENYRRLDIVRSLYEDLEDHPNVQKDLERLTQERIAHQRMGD
Assay [5] has as its system OCI-Ly10. Briefly: Cytotoxicity against human OCILY10 cells assessed as reduction in cell viability measured after 12 days by CellTiter-Glo assay. The format is functional. To be noted: time 12 day.
In assay [6] the target is T2, von Hippel-Lindau disease tumor suppressor/Interleukin-1 receptor-associated kinase 1 (Homo sapiens, UniProt P51617+P40337). In words: Protac activity at IRAK1/VHL E3 ligase in HEK293T cells assessed as induction of IRAK1 degradation at 10 uM measured after 24 hrs by Western blot analysis relative to control. The format is cell-based. (In general: In western blotting, separated proteins are transferred to a membrane and probed.)
Target sequence in this assay (P40337 whole entry, looked up): as the sequence (P40337 whole entry) above
Target sequence in this assay (P51617 whole entry, looked up): as the sequence (P51617 whole entry, the tested form may be a part) above

For assay [7], the target named is T2, von Hippel-Lindau disease tumor suppressor/Interleukin-1 receptor-associated kinase 1. Briefly: Protac activity at IRAK1/VHL E3 ligase in HEK293T cells assessed as induction of IRAK1 degradation measured after 24 hrs by Western blot analysis. It is filed as cell-based.
Target sequence in this assay (P51617 whole entry): as the sequence (P51617 whole entry, the tested form may be a part) above
Target sequence in this assay (P40337 whole entry): as the sequence (P40337 whole entry) above
The nature of assay [8]: Cytotoxicity against human HBL1 cells assessed as cell growth inhibition measured after 12 days by WST-8 assay. It is filed as functional, cell-based. To be noted: HBL1, 288 h. Background: Tetrazolium assays rely on reduction of a dye to a coloured formazan, in cell work by metabolically active cells.
For assay [9], the target named is T2, von Hippel-Lindau disease tumor suppressor/Interleukin-1 receptor-associated kinase 1. Briefly: Protac activity at IRAK1/VHL E3 ligase in HEK293T cells assessed as induction of IRAK1 degradation at >=1 uM measured after 8 hrs by Western blot analysis relative to control. The format is cell-based. To be noted: dose microM >=1, time 8.0 hrs.
Target sequence in this assay (P40337 whole entry, looked up): as the sequence (P40337 whole entry) above
Target sequence in this assay (P51617 whole entry, looked up): as the sequence (P51617 whole entry, the tested form may be a part) above
For assay [10] the target is unchanged. In words: Protac activity at IRAK1/VHL E3 ligase in HEK293T cells assessed as induction of IRAK1 degradation at >=1 uM measured after 2 hrs by Western blot analysis relative to control. It is filed as cell-based. Particulars: dose microM >=1, time 2.0 hrs.
Target sequence in this assay (P40337 whole entry, looked up): as the sequence (P40337 whole entry) above
Target sequence in this assay (P51617 whole entry, looked up): as the sequence (P51617 whole entry, the tested form may be a part) above

As a reminder, the IC50 is the concentration that inhibits the measured activity by half. What is called DC50 is the midpoint of the concentration-degradation curve.

For `COc1cc(N2CCC(OCC(=O)N[C@H](C(=O)N3C[C@@H](O)C[C@H]3C(=O)N[C@@H](C)c3ccc(-c4scnc4C)cc3)C(C)(C)C)CC2)ccc1NC(=O)c1cccc(-c2ccn[nH]2)n1`, the figures for the Activity in assay [1] and in [5] were 1.5 µM and 3 µM, respectively. In addition, the IC50 in assay [2] is 79 nM; in assay [3], 320 nM; in assay [4] it was over 10000 nM. In addition, the %max in assay [6] came to 18%. Also, the DC50 in assay [7] is over 10000 nM.

Turning to `COc1cc(N2CCC(OCC(=O)N[C@H](C(=O)N3C[C@H](O)C[C@H]3C(=O)NCc3ccc(-c4scnc4C)cc3)C(C)(C)C)CC2)ccc1NC(=O)c1cccc(-c2ccn[nH]2)n1`, the IC50 in assay [2] was 60 nM; in assay [3] it was 260 nM; in [4], 1400 nM. In addition, in assay [6], the %max came out at 95%.

`COc1cc(N2CCOCC2)ccc1NC(=O)c1cccc(-c2ccn[nH]2)n1`: the IC50 in [2] is 23 nM; in [3], 24 nM; in assay [8] it was 2800 nM.

As for `COc1cc(N2CCN(CCC(=O)N[C@H](C(=O)N3C[C@H](O)C[C@H]3C(=O)NCc3ccc(-c4scnc4C)cc3)C(C)(C)C)CC2)ccc1NC(=O)c1cccc(-c2cc[nH]n2)n1`, the IC50 is 80 nM in assay [2], 368 nM in [3] and 1650 nM in assay [4]. The Activity in assay [9] was over 90%; in assay [10], 50%. The %max in assay [6] came to 88%. Further, in assay [7], the DC50 stood at 134 nM.
